In patent US9850183B2, “Conjugates derived from non-steroidal anti-inflammatory drugs and methods of use thereof in imaging” (Reiley Pharmaceuticals, Inc., priority 2014, dated 2017):
pIC50: −log10 of the molar value. Read-outs that look alike come from different tables or passages of the source.

Experiments:
human COX-2 = target: T1, human COX-2 (Homo sapiens, UniProt P35354); experiment: COX-2 enzyme assay (EIA kit, PGF2α readout); format: biochemical; settings: for IC50: human COX-2 enzyme, EIA, 15 min pre-incubation at 37° C., read-out: COX-2 IC50 (μM) enzyme
T1 construct: purchased Cayman Chemical Co., Ann Arbor, Mich., USA 701080
T1 sequence (P35354 18-604): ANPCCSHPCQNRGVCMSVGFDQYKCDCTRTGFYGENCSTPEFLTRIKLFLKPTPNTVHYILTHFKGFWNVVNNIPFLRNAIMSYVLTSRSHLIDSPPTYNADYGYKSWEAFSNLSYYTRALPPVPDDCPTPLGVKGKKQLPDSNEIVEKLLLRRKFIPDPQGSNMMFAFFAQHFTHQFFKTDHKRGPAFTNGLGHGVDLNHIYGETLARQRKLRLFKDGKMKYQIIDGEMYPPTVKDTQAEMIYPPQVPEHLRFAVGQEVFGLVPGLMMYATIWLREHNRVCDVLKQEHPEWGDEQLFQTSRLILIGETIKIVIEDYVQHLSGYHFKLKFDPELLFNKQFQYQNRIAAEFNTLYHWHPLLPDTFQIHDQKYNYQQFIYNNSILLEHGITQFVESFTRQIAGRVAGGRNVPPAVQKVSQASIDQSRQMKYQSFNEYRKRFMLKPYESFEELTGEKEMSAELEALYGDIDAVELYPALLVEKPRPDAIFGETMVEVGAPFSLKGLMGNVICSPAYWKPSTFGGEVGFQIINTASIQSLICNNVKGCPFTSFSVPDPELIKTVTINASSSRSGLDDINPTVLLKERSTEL
Description: The ability of compounds to inhibit ovine COX-1 and human COX-2 was determined using a commercially available enzyme immunoassay (EIA) kit (catalog no. 701090 (COX-1); 701080 (COX-2) Cayman Chemical Co., Ann Arbor, Mich., USA) according to the manufacturer's protocol. COX catalyzes the first step in the biosynthesis of AA to PGH2. PGF2α, produced from PGH2 by reduction with stannous chloride, was measured by EIA (ACE™ competitive EIA, Cayman Chemical, Ann Arbor, Mich., USA). Briefly, to a series of supplied reaction buffer solutions [960 μl 0.1 M Tris-HCl (pH 8.0) containing 5 mM EDTA and 2 mM phenol] with either COX-1 or COX-2 (10 μl) enzyme in the presence of heme (10 μl), 10 μl of various concentrations of test drug solutions were added. These solutions were incubated for 15 min at 37° C. and subsequently 10 μl AA solution (100 μM) was added. The COX reaction was stopped by the addition of 30 μl stannus chloride after 2 min, mixed immediately, supernatants were 2000 fold diluted. The produced PGF2α was measured by EIA. This assay is based on the competition between PGs and a PG-acetylcholinesterase conjugate (PG tracer) for a limited amount of PG antiserum. The amount of PG tracer that is able to bind to the PG antiserum is inversely proportional to the concentration of PGs in the wells since the concentration of the PG tracer is held at a constant while the concentration of PGs varies. The specific antiserum-PG complex bound to a mouse anti-rabbit IgG that had been previously attached to the well. The plate was washed to remove any unbound reagents and 200 μl Ellman's reagent (5,5′-dithiobis-(2-nitrobenzoic acid), which contains the substrate to acetylcholine esterase, was added to the well. The product of this enzymatic reaction generates a distinct yellow color that absorbs at 406 nm. The intensity of this color, determined by spectrophotometry, is proportional to the amount of PG tracer bound to the well, which is inversely proportional to the amount of PGs present in the well during the incubation. Percent inhibition was calculated by the comparison of the compounds treated to the various control incubations.
(§1) Dose-response curves were generated using XLFit (IDBS, Surrey, UK) or Prism (GraphPad Software, La Jolla, Calif., US) to calculate IC50 values for each compound tested.

COX-2 = target: T2, COX-2 (Mus musculus, UniProt Q05769); experiment: Cell-based COX-2 assay (PGE2 in LPS/IFN-g stimulated RAW264.7 cells); settings: RAW264.7 murine macrophages, 1 μg/ml LPS and 10 U/ml IFN-g for 7 h, PGE2 readout
T2 construct: endogenous in cells; host or cells: RAW264.7 murine macrophages, stimulated with LPS and IFN-g
T2 sequence (Q05769 18-604): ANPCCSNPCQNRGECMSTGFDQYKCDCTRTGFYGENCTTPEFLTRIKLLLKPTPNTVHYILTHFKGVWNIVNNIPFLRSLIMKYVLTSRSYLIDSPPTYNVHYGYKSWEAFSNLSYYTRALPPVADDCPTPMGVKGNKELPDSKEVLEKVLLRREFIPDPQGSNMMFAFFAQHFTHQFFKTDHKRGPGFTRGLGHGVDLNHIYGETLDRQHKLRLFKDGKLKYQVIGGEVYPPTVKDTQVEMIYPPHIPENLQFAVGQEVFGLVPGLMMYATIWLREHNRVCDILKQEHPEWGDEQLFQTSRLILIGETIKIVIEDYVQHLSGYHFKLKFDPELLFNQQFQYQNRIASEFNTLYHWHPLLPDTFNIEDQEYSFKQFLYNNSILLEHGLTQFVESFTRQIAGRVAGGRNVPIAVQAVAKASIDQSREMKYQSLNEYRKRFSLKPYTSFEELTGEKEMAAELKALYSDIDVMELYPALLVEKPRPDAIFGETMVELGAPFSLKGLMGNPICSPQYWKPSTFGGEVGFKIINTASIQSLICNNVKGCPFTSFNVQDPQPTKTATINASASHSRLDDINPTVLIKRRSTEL
Description: RAW264.7 murine macrophages were obtained from the Cell Bank of Shanghai Institute of Biochemistry and Cell Biology, Chinese Academy of Sciences (Shanghai, China) and cultured in Dulbecco's modified Eagle's medium containing 100 U/ml penicillin and 100 μg/ml streptomycin at 37° C. in 5% CO2.
RAW264.7 cells were plated at a density of 2.5×10^5/ml cells in a 96-well plate with 0.1 ml of culture medium per well and cultured overnight. The cells were pre-incubated for 30 min with various doses of compounds and stimulated for 7 h with 1 μg/ml LPS and 10 U/ml IFN-g. The cell culture supernatants were collected immediately following treatment and centrifuged at 1,000 rpm for 5 min to remove the particulate matter. PGE2 was determined using a Prostaglandin E2 assay kit (catalog no. 62P2APEB; Cisbio Co.,). 10 μL of cell supernatant was transferred to a 384-well low volume plate (e.g. Corning® 3544), 5 μL of PGE2-d2 was added, followed by 5 μL anti-PGE2 Cryptate as a negative control. Replace the standard by 10 μL of diluent and PGE2-d2 by 5 μL of reconstitution buffer, Cal0 (for positive control), replace the standard by 10 μL of diluent. Incubate at 4° C. overnight. After centrifuging at 1,000 rpm for 1 min, the dual fluorescence emissions of 615 and 665 nm with a 320 nm excitation were measured using an Envision plate reader (Perkin Elmer, Shelton, Conn.). The results are expressed as the ratio of 665 nm/615 nm emissions.
as §1

Row | Compound | IC50 (human COX-2) [µM] | IC50 (COX-2) [µM] | pIC50 (human COX-2)
1 | COc1ccc2c(c1)c(CC(=O)NCCCCNC(=O)C[N]1C(=O)C[N]3C(=O)C[N]4C(=O)C[S][Re]143=[O])c(C)n2C(=O)c1ccc(Cl)cc1 [Compound 23] | 12 | – | –
2 | COc1ccc2c(c1)c(CC(=O)NCCCCCCNC(=O)C[N]1C(=O)C[N]3C(=O)C[N]4C(=O)C[S][Re]143=[O])c(C)n2C(=O)c1ccc(Cl)cc1 [Compound 27] | 0.6 | 12.7 | –
3 | Cc1c(CC(=O)O)c2cc(OCCCCNC(=O)C[N]3C(=O)C[N]4C(=O)C[N]5C(=O)C[S][Re]354=[O])ccc2n1C(=O)c1ccc(Cl)cc1 [Compound 35] | – | – | 5.80
4 | Cc1c(CC(=O)O)c2cc(OCCCCCCNC(=O)C[N]3C(=O)C[N]4C(=O)C[N]5C(=O)C[S][Re]354=[O])ccc2n1C(=O)c1ccc(Cl)cc1 [Compound 39] | – | – | 5.96
5 | CCOC(=O)C1C[S][Re]23(=[O])[S]CC(C(=O)NCCOCCOCCNC(=O)Cc4c(C)n(C(=O)c5ccc(Cl)cc5)c5ccc(OC)cc45)[N]2CC[N]13 (stereo not shown) [Compound 178] | 0.2 | 1.8 | –
6 | CCOC(=O)C1C[S][Re]23(=[O])[S]CC(C(=O)NCCCCCCNC(=O)Cc4c(C)n(C(=O)c5ccc(Cl)cc5)c5ccc(OC)cc45)[N]2CC[N]13 (stereo not shown) [Compound 181] | 1 | 1.5 | –
7 | CCOC(=O)C1C[S][Re]23(=[O])[S]CC(C(=O)NCCCCCCCNC(=O)Cc4c(C)n(C(=O)c5ccc(Cl)cc5)c5ccc(OC)cc45)[N]2CC[N]13 (stereo not shown) [Compound 182] | 0.8 | 0.6 | –
8 | CCOC(=O)C1C[S][Re]23(=[O])[S]CC(C(=O)NCCCCCCCCNC(=O)Cc4c(C)n(C(=O)c5ccc(Cl)cc5)c5ccc(OC)cc45)[N]2CC[N]13 (stereo not shown) [Compound 183] | 0.4 | 0.7 | –
9 | COc1ccc2c(c1)c(CC(=O)NCCCCCCNC(=O)C1C[S][Re]34(=[O])[S]CC(C(=O)OC(C)C)[N]3CC[N]14)c(C)n2C(=O)c1ccc(Cl)cc1 (stereo not shown) [Compound 185] | 1.2 | 0.5 | –
10 | COc1ccc2c(c1)c(CC(=O)NCCNC(=O)[c-]1cccc1)c(C)n2C(=O)c1ccc(Cl)cc1.[C-]#[O+].[C-]#[O+].[C-]#[O+].[Re+] [Compound 243] | 0.5 | 0.7 | –
11 | COc1ccc2c(c1)c(CC(=O)NCCOCCNC(=O)[c-]1cccc1)c(C)n2C(=O)c1ccc(Cl)cc1.[C-]#[O+].[C-]#[O+].[C-]#[O+].[Re+] [Compound 244] | > 30 | 1.5 | –
12 | COc1ccc2c(c1)c(CC(=O)NCCCCCCCCNC(=O)[c-]1cccc1)c(C)n2C(=O)c1ccc(Cl)cc1.[C-]#[O+].[C-]#[O+].[C-]#[O+].[Re+] [Compound 247] | 0.2 | 2.6 | –
13 | COc1ccc2c(c1)c(CC(=O)NCCOCCOCCOCCNC(=O)[c-]1cccc1)c(C)n2C(=O)c1ccc(Cl)cc1.[C-]#[O+].[C-]#[O+].[C-]#[O+].[Re+] [Compound 248] | 0.2 | > 30 | –
14 | COc1ccc2c(c1)c(CC(=O)NCc1ccc(CNC(=O)[c-]3cccc3)cc1)c(C)n2C(=O)c1ccc(Cl)cc1.[C-]#[O+].[C-]#[O+].[C-]#[O+].[Re+] [Compound 249] | 1.1 | 4.4 | –
15 | COc1ccc2c(c1)c(CC(=O)NCCOCCOCCNC(=O)c1ccc[cH-]1)c(C)n2C(=O)c1ccc(Cl)cc1.[C-]#[O+].[C-]#[O+].[C-]#[O+].[Re+] [Compound 251] | 0.3 | > 30 | –
16 | COc1ccc2c(c1)c(CC(=O)NCCCC[N+]13CC[S][Re-]14(=[O])[S]CC[N]4C(=O)C3)c(C)n2C(=O)c1ccc(Cl)cc1 (stereo not shown) [Compound 261] | 0.8 | 1.8 | –
17 | COc1ccc2c(c1)c(CC(=O)NCCOCC[N+]13CC[S][Re-]14(=[O])[S]CC[N]4C(=O)C3)c(C)n2C(=O)c1ccc(Cl)cc1 (stereo not shown) [Compound 262] | – | 1.7 | 6.05
18 | COc1ccc2c(c1)c(CC(=O)NCCCCC[N+]13CC[S][Re-]14(=[O])[S]CC[N]4C(=O)C3)c(C)n2C(=O)c1ccc(Cl)cc1 (stereo not shown) [Compound 263] | – | 0.3 | 6.52
19 | COc1ccc2c(c1)c(CC(=O)NCCCCCCCC[N+]13CC[S][Re-]14(=[O])[S]CC[N]4C(=O)C3)c(C)n2C(=O)c1ccc(Cl)cc1 (stereo not shown) [Compound 265] | – | 0.1 | 5.68
20 | COc1ccc2c(c1)c(CC(=O)NCCCOCCC[N+]13CC[S][Re-]14(=[O])[S]CC[N]4C(=O)C3)c(C)n2C(=O)c1ccc(Cl)cc1 (stereo not shown) [Compound 266] | 0.6 | 0.2 | –
21 | COc1ccc2c(c1)c(CC(=O)NCCCOCC[N+]13CC[S][Re-]14(=[O])[S]CC[N]4C(=O)C3)c(C)n2C(=O)c1ccc(Cl)cc1 (stereo not shown) [Compound 267] | > 30 | 0.3 | –
22 | COc1ccc2c(c1)c(CC(=O)NCCCC(C)(C)NC(=O)c1ccc[cH-]1)c(C)n2C(=O)c1ccc(Cl)cc1.[C-]#[O+].[C-]#[O+].[C-]#[O+].[Re+] [Compound 311] | – | 0.4 | –
23 | COc1ccc2c(c1)c(CC(=O)NCCCCCC(C)(C)NC(=O)c1ccc[cH-]1)c(C)n2C(=O)c1ccc(Cl)cc1.[C-]#[O+].[C-]#[O+].[C-]#[O+].[Re+] [Compound 313] | – | 0.2 | –
24 | COc1ccc2c(c1)c(CC(=O)NCCCNCCC[N+]13CC[S][Re-]14(=[O])[S]CC[N]4C(=O)C3)c(C)n2C(=O)c1ccc(Cl)cc1 (stereo not shown) [Compound 320] | – | 5 | –
25 | COc1ccc2c(c1)c(CCNC(=O)CC[N+]13CC[S][Re-]14(=[O])[S]CC[N]4C(=O)C3)c(C)n2C(=O)c1ccc(Cl)cc1 (stereo not shown) [Compound 356] | – | 1.6 | –
